Measured values from PMC7948948 (The Journal of Biological Chemistry, 2021).
≈ marks a conversion by molar mass, not a printed value. Where “and” joins values, the source holds several entries; their conditions need not be identical. Equal entries are not always repeated. Entries after “also recorded” stand apart in the source; their conditions may differ. Where two headings read alike, the source gives them in different places.

What was measured:
Mtb PheRS [1] = biological target: T1, Mtb PheRS (Mycobacterium tuberculosis, UniProt P9WFU3); settings: for Mode of inhibition with regard to Phe / Mode of inhibition with regard to ATP: Lineweaver-Burk plot; for Mode of inhibition with regard to ATP: no sulfate added
T1 sequence (P9WFU3 whole entry): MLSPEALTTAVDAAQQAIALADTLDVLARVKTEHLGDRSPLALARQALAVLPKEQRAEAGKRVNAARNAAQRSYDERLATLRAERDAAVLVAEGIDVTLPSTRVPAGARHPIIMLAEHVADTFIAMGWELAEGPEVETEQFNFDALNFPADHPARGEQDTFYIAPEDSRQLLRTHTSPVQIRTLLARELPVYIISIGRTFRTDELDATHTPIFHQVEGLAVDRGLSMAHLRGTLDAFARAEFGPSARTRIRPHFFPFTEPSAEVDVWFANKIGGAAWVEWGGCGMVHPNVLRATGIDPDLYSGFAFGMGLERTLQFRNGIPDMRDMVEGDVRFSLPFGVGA
T1 sequence (P9WFU1 whole entry, further chain): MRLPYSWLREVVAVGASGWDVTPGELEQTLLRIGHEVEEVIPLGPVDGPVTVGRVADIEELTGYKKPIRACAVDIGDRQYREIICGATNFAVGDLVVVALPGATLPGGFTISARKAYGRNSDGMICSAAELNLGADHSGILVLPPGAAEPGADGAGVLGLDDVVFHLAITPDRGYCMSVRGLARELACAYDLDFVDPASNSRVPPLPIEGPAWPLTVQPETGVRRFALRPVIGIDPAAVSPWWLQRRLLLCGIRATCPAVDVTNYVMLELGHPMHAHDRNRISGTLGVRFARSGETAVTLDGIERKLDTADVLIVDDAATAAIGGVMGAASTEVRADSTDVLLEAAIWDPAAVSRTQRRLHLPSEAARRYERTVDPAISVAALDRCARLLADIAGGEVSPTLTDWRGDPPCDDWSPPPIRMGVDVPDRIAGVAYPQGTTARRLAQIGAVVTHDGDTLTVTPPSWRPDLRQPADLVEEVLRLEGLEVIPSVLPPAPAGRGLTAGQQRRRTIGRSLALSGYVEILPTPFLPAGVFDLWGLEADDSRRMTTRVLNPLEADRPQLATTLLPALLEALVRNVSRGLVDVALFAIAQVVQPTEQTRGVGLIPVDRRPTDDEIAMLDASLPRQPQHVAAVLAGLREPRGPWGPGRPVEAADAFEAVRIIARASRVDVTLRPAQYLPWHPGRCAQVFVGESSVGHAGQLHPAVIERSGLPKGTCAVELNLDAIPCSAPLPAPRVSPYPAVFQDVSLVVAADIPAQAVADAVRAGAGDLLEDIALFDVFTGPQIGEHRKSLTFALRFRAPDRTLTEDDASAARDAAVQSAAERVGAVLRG

Mtb PheRS [2] = biological target: T1, Mtb PheRS; settings: for Km: read-out: Km, aminoacylation assay
Mtb PheRS [3] = biological target: T1, Mtb PheRS; experiment: ATP consumption assay (Kinase-Glo), Mtb PheRS; format: biochemical
Mtb PheRS [4] = biological target: T1, Mtb PheRS; experiment: biochemical; settings: read-out: IC50, AMP Glo, Mtb PheRS
Mtb PheRS [5] = biological target: T1, Mtb PheRS; experiment: biochemical; settings: read-out: IC50, Malachite Green, Mtb PheRS
hFARS1 = biological target: T2, hFARS1 (Homo sapiens, UniProt Q9Y285); experiment: biochemical; settings: for IC50: 50 nM enzyme, 2 μM ATP, 20 μM L-Phe, 1 mg/ml yeast total tRNA, 1 h, read-out: IC50, Kinase Glo, hFARS1
T2 sequence (Q9Y285 1-508): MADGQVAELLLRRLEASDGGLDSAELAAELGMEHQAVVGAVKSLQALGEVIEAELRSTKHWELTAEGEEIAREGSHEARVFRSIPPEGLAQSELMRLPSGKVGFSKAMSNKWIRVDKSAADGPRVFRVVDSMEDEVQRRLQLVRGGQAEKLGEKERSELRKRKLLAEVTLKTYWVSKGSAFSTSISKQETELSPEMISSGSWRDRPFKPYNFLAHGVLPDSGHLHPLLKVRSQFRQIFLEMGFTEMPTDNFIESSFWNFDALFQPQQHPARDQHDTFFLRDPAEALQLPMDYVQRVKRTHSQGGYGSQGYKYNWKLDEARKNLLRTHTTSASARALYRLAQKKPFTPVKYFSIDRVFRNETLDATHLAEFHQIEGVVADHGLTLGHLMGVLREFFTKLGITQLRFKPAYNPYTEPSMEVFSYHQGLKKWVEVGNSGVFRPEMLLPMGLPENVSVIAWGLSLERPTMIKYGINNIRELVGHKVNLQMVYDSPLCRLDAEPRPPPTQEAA
T2 sequence (Q9NSD9 1-589 partner): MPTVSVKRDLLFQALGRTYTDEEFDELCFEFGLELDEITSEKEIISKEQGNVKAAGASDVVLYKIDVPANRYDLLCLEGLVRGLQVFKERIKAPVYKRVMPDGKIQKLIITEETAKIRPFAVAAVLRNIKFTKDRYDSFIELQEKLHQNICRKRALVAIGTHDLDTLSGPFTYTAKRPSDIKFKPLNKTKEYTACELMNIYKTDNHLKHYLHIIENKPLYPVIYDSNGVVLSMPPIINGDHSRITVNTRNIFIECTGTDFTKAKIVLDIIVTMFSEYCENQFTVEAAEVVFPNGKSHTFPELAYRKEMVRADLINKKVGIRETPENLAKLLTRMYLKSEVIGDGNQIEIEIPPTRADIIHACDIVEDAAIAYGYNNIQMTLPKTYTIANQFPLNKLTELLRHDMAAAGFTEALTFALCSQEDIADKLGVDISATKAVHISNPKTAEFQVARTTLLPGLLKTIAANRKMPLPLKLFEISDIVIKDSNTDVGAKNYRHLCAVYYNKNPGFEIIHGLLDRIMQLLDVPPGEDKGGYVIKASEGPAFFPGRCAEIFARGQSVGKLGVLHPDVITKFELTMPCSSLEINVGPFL

hFARS2 = biological target: T3, hFARS2 (Homo sapiens, UniProt O95363); experiment: biochemical; settings: for IC50: E. coli total tRNA 0.5 mg/ml, 1 h, read-out: IC50, Kinase Glo, hFARS2
T3 sequence (O95363 38-451 limits assumed): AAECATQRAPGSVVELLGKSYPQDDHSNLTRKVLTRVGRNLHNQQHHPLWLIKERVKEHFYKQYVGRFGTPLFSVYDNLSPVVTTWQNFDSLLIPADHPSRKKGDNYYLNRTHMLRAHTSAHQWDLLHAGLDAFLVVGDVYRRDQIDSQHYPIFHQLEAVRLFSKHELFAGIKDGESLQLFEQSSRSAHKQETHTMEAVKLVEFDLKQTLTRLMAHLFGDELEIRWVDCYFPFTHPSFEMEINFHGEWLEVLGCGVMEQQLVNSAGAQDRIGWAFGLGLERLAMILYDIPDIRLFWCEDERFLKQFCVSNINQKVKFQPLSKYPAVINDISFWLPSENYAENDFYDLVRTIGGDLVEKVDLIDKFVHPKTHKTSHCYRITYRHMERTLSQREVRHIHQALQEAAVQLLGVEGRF

Mtb H37Rv = experiment: MIC by microplate alamarBlue assay; format: cell-based, Mycobacterium tuberculosis; settings: for MIC: Mycobacterium tuberculosis, H37RV, n = 3, read-out: MIC against Mtb H37Rv
Mtb PheRS [6] = biological target: T1, Mtb PheRS; experiment: biochemical
WT H37Rv = experiment: microbe, parasite or virus in culture; format: cell-based; settings: Mycobacterium tuberculosis, 264 h, absorbance at 580 nm, 11 days, Gompertz fit
in vitro [7] = format: cell-based; settings: human
Experimental: (§1) HEK293T, Vero E6, and HepG2 cells were cultured in Dulbecco's modified Eagle's medium plus 10% fetal bovine serum and 1% penicillin/streptomycin at 37 °C with 5% CO2. Plates of 96 wells were plated with 100 μl 1 × 10^5 cells/ml per well and incubated for 24 h before adding compound in serial dilutions. After another 48 h, 40 μl reagents of CellTiter-Glo cell viability assay (Promega) was added, and the plates were shaken at 400 rpm for 10 min in the dark. Luminescence was recorded with plate reader. The data were analyzed with GraphPad Prism 9.
(§2) HepG2 (A and B) is an immortal cell line derived from human liver cells. HEK-293T (C and
(§3) D) is a human embryonic kidney 293 cell line. Vero E6 is a cell line derived from African
(§4) green monkey kidney epithelial cells. […]

in vitro [8] = format: cell-based, human; settings: human
Experimental: as §1, §2, §3, §4

HEK-293T = experiment: in vitro; format: cell-based, human; settings: 48 h
Experimental: as §1, §2, §3, §4

[9] = Cytotoxicity, CellTiter-Glo, Vero E6; format: cell-based; settings: African green monkey, Vero E6 cells
Experimental: as §1, §2, §3, §4

in vitro [10] = format: cell-based
Experimental: as §1

luciferase = experiment: Counter-screen of Kinase-Glo coupled reaction, Mtb PheRS omitted; format: biochemical; settings: concentrations up to 20 μM
PPase, PNPase = experiment: Counter-screen of PPi production coupled reaction, Mtb PheRS omitted; format: biochemical; settings: concentrations up to 20 μM
HepG2 = experiment: in vitro; format: cell-based; settings: human, 48 h
Experimental: as §1, §2, §3, §4

human FAAH = settings: cited from earlier work
N[C@@H](Cc1ccccc1)C(=O)O = experiment: purified protein, by the assay type

Compound: Nc1ncnc2c1ncn2[C@@H]1O[C@H](COP(=O)(O)OP(=O)(O)OP(=O)(O)O)[C@@H](O)[C@H]1O [ATP]
- Km (Mtb PheRS [1]; read-out: apparent Km, PPi production assay): 162 ± 11.6 µM
- Km (Mtb PheRS [2]): 387 ± 279 µM
- kcat, aminoacylation assay (Mtb PheRS [2]; substrate of Mtb PheRS): 0.405 ± 0.417 s⁻¹

Compound: O=C(Nc1cccc(S(=O)(=O)NCCc2c[nH]c3ccccc23)c1)Nc1nccs1 [GDI05-001]
- IC50 (Mtb PheRS [3]): 1.72 ± 0.13 µM
- IC50 (Mtb PheRS [4]): 0.87 ± 0.06 µM
- IC50 (Mtb PheRS [5]): 0.52 ± 0.06 µM
- IC50 (hFARS1): > 200 µM
- IC50 (hFARS2): 85.4 µM
- MIC (Mtb H37Rv): 145 µM (≈ 64 µg/mL)
- Mode of inhibition with regard to Phe (Mtb PheRS [1]): Phe competitive inhibitors
- Mode of inhibition with regard to ATP (Mtb PheRS [1]): noncompetitive
- IC50 (Mtb PheRS [6]): 1.34 µM
- Ki (Mtb PheRS [6]; Ki in the Phe-competitive mode): 0.2 ± 0.01 µM

Compound: O=C(Nc1cccnc1)N1CCC(Cc2cccc(Oc3ccc(C(F)(F)F)cn3)c2)CC1 [PF-3845]
- IC50 (Mtb PheRS [3]): 2.65 ± 0.19 µM
- IC50 (Mtb PheRS [4]): 2.49 ± 0.19 µM
- IC50 (Mtb PheRS [5]): 1.95 ± 0.19 µM
- IC50 (hFARS1): > 200 µM
- Inhibition of human cytoplasmic PheRS (hFARS1; concentrations up to 200 μM): does not inhibit
- IC50 (hFARS2): > 200 µM
- Inhibition of human mitochondrial PheRS (hFARS2; concentrations up to 200 μM): does not inhibit
- MIC (Mtb H37Rv): ~24 µM (≈ 11 µg/mL)
- MIC against Mtb H37Rv (Mtb H37Rv; n = 3): ~23.87 µM (≈ 10.9 µg/mL)
- MIC (WT H37Rv): 220 µM (≈ 100 µg/mL)
- CC50 (in vitro [7]; 48 h, CellTiter-Glo, read-out: CC50, HepG2): 21.7 ± 1.53 µM
- CC50 (in vitro [8]; 48 h, CellTiter-Glo, read-out: CC50, HEK-293T): 16.9 ± 1.54 µM
- CC50 (HEK-293T; CellTiter-Glo, read-out: CC50, HEK-293T): 16.9 µM
- CC50 at 48 h [9]: 21.7 µM
- CC50 (in vitro [10]; human, African green monkey): 16.9 to 25.8 µM
- CC50 (in vitro [10]; two human cell lines, preliminary result, read-out: CC50 against human cell lines (range)): 16.9 to 21.7 µM
- Inhibition of luciferase (Kinase-Glo coupled reaction) (luciferase): did not inhibit
- Inhibition of PPase and PNPase (PPi production coupled reaction) (PPase, PNPase): did not inhibit
- Mode of inhibition with regard to tRNAPhe (Mtb PheRS [1]): uncompetitive inhibitor; also recorded: uncompetitive inhibition mode
- Mode of inhibition with regard to ATP in the presence of sulfate (Mtb PheRS [1]; 5 mM (NH4)2SO4): competitive inhibition mode; also recorded: ATP competitive inhibitor
- Mode of inhibition with regard to Phe (Mtb PheRS [1]): Phe competitive inhibitors; also recorded: competitive inhibition mode
- Mode of inhibition with regard to ATP (Mtb PheRS [1]): mixed inhibition mode
- IC50 (Mtb PheRS [6]): 2.4 µM
- Ki (Mtb PheRS [6]; Ki in the Phe-competitive mode): 1.7 ± 0.11 µM
- Ki (Mtb PheRS [6]; Ki with regard to ATP when SO4 2- was absent, mixed inhibition mode, no sulfate): 1.08 ± 0.245 µM
- Ki (Mtb PheRS [6]; Ki with regard to ATP, competitive, with sulfate, 5 mM (NH4)2SO4 in the PheRS enzyme reaction): ~0.73 µM and 0.73 µM

Compound: O=C(Nc1cccnn1)N1CCC(=Cc2cccc(Oc3ccc(C(F)(F)F)cn3)c2)CC1 [PF-04457845]
- IC50 (Mtb PheRS [3]): 9.76 ± 0.73 µM
- IC50 (Mtb PheRS [4]): 10.1 ± 1.02 µM
- IC50 (Mtb PheRS [5]): 11.7 ± 1.43 µM
- IC50 (hFARS1): > 200 µM
- IC50 (hFARS2): > 200 µM
- CC50 at 48 h (in vitro [7]; CC50, HepG2): 25.8 ± 2.88 µM
- CC50 (HepG2): 25.8 µM
- CC50 at 48 h (in vitro [8]; CC50, HEK-293T): 23.6 ± 1.93 µM
- CC50 (HEK-293T; human): 23.6 µM
- CC50 at 48 h (in vitro [10]; human): 23.6 to 25.8 µM
- CC50 (in vitro [10]; human, African green monkey): 16.9 to 25.8 µM
- kinact/Ki for covalent inhibition of human FAAH (human FAAH): 40,300 M^−1s^−1
- IC50 (Mtb PheRS [6]): 12 µM

Compound: N[C@@H](Cc1ccccc1)C(=O)O [Phe, phenylalanine]
- Km (Mtb PheRS [2]): 68 ± 6.6 µM

Compound: (Mycobacterium tuberculosis H37Rv)
- Km (N[C@@H](Cc1ccccc1)C(=O)O; pH 7.4): 18.10 ± 2.44 µM

Compound: Mtb PheRS (Mycobacterium tuberculosis H37Rv)
- Km (N[C@@H](Cc1ccccc1)C(=O)O): 68.0 ± 6.6 µM
- kcat (N[C@@H](Cc1ccccc1)C(=O)O): 1.1 ± 0.0517 s⁻¹
- kcat/Km (N[C@@H](Cc1ccccc1)C(=O)O): 16200 M⁻¹ s⁻¹
